The record followed here is PMC6937553, “Structural and biochemical studies of the glucuronoyl esterase OtCE15A illuminate its interaction with lignocellulosic components” (The Journal of Biological Chemistry, 2019).

The target in assay [1] is T1, OtCE15A (Opitutus terrae, UniProt B1ZMF4).
T1 construct: gene Oter_0116; recombinant in E. coli BL21 (DE3), purified as in earlier work; catalytic Ser-267, His-408, Glu-290, Asp-356
Kind of assay: X-ray crystal structure. The format is binding.

For assay [2], the target named is T1, OtCE15A. In words: continuous coupled esterase assay (K-URONIC kit). The assay is classed as biochemical. The source says:
(§1) continuous coupled esterase assay (K-URONIC kit) on OtCE15A

The target in assay [3] is T2, OtCE15A (Opitutus terrae, UniProt B1ZMF4, L269Y).
T2 construct: gene Oter_0116; recombinant in E. coli BL21 (DE3), purified as in earlier work; catalytic Ser-267, His-408, Glu-290, Asp-356
T2 sequence (B1ZMF4 entry or part of it L269Y): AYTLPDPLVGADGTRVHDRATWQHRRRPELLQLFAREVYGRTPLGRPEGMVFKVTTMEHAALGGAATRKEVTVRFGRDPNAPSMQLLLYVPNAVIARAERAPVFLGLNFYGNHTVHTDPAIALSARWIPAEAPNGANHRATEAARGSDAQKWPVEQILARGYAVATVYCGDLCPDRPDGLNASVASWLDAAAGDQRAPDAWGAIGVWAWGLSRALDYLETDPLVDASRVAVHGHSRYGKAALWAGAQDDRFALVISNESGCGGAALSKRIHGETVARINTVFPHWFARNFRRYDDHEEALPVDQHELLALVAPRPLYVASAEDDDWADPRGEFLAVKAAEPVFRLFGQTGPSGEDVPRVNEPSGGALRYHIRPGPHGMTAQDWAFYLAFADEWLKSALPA
In words: continuous coupled esterase assay (K-URONIC kit). The format is biochemical. The settings on record: substrate inhibition constant.
Text: as §1

For assay [4], the target named is T1, OtCE15A. In words: inhibition of BnzGlcA hydrolysis, coupled continuous assay (K-URONIC kit). Conditions: BnzGlcA as substrate (3.5 mM or 350 μM). The assay is classed as biochemical.
The target in assay [5] is T1, OtCE15A. The assay is described as above. The settings on record: BnzGlcA as substrate (3.5 mM or 350 μM). The format is biochemical. This is another data set of the same source.
Assay [6] deals with T1, OtCE15A. The assay is described as above. Conditions: competitive; BnzGlcA as substrate. The format is biochemical.

T1 sequence (B1ZMF4 entry or part of it): as the sequence (B1ZMF4 entry or part of it L269Y) above, with Y237L counted along it

`O=C(O)[C@H]1OC(O)[C@H](O)[C@@H](O)[C@@H]1O` (some centres unmarked) [GlcA, glucuronate]: the X-ray crystal structure result on OtCE15A [1] (active site) is “We determined the structure of the WT OtCE15A in complex with the product GlcA”.
The term Km denotes the concentration of substrate that gives half-maximal velocity. For `COC(=O)[C@H]1OC(O)[C@H](O)[C@@H](O)[C@H]1O` (some centres unmarked) [MeGalA, methyl galacturonoate], at OtCE15A [2], the Km was 5.31 ± 0.51 mM.
With `COC(=O)[C@H]1OC(O)[C@H](O)[C@@H](O)[C@@H]1O` (some centres unmarked) [MeGlcA, methyl glucuronoate], the Ksi on OtCE15A [3] stood at 34.5 ± 11.9 mM.
On to `CO[C@H]1[C@H](O)[C@@H](O)[C@@H](O[C@H]2[C@H](O[C@@H]3COC(O)[C@H](O)[C@H]3O)OC[C@@H](O[C@@H]3OC[C@@H](O)[C@H](O)[C@H]3O)[C@@H]2O)O[C@@H]1C(=O)O` (stereo partly drawn) [XUX, 2^3-(4-O-methyl-α-D-glucuronyl)-xylotriose], for which the X-ray crystal structure result at OtCE15A [1] (active site, no variant named, taken as wild type) is recorded as “OtCE15A in complex with the glucuronoxylan oligosaccharide XUX (PDB code 6T0I)”.
Usually % inhibition stands for the share of the control response that was lost under treatment. Low values mean little suppression, high ones strong suppression. As to `OC[C@H]1OC(O)[C@H](O)[C@@H](O)[C@@H]1O` (some centres unmarked) [glucose], the “% inhibition at up to 250 mM” value at OtCE15A [4] was under 10%.
Take `OC1OC[C@@H](O[C@@H]2OC[C@@H](O)[C@H](O)[C@H]2O)[C@H](O)[C@H]1O` (some centres unmarked) [xylobiose]: at OtCE15A [1] (active site and second site about 25 Å away, no variant named, taken as wild type), the X-ray crystal structure entry is recorded as “showing the two xylobiose-binding sites (PDB code 6SYU)”. Moreover, the “% reduction of activity at 100 mM” value at OtCE15A [5] is given as ~ 50%.
One may read the Ki as a measure of affinity in units of concentration, obtained from inhibition or displacement. The low end stands for tighter binding, the high end for weaker binding. Compound `OC1OC[C@@H](O)[C@H](O)[C@H]1O` (some centres unmarked) [xylose] displayed an inhibitory constant (Ki) at OtCE15A [6] of 48.1 mM. This counts as millimolar.
